Experimental data as given in patent US4681970A, “Bicyclo-substituted phenylacetonitrile derivatives” (G. D. Searle & Co., priority 1986, dated 1987).
Structures can show the parent of a compound that is named as a salt.

Key:
[1] = system: spontaneously hypertensive rats (SHR); conditions: clinically useful reference agents; cited from earlier work
[2] = compared with verapamil hydrochloride; cited from earlier work
[3] = system: spontaneously hypertensive rats (SHR); test: Antihypertensive activity in unanesthetized spontaneously hypertensive rats (SHR); type: in vivo, rat; conditions: for duration of antihypertensive effect: oral
Procedure: The test procedures employed to measure these activities are described below.
Male, unanesthetized spontaneously hypertensive rats (SHR), 11 to 16 weeks old were used in this test procedure. […]
Initial mean arterial blood pressure was measured directly via a previously implanted arterial catheter immediately before administration of the test compound. Blood pressure readings were made at hourly intervals, 24 hours per day, for 3 days following oral administration of the test compound and at 5, 10, and 15 minutes following intravenous administration. […] Statistical comparisons were made using the analysis of variance test with two sided probability calculations.

[4] = system: atrial-ventricular conduction; conditions: compared with verapamil or diltiazem
[5] = target: T1, Isolated thoracic aortic rings from the male SHR (Rattus norvegicus, UniProt P22002); test: Calcium antagonism in vascular smooth muscle (isolated thoracic aortic rings from male SHR); type: cell-based; conditions: read-out: pA2 Ca^++ Antagonism (converted)
T1 sequence (P22002 whole entry): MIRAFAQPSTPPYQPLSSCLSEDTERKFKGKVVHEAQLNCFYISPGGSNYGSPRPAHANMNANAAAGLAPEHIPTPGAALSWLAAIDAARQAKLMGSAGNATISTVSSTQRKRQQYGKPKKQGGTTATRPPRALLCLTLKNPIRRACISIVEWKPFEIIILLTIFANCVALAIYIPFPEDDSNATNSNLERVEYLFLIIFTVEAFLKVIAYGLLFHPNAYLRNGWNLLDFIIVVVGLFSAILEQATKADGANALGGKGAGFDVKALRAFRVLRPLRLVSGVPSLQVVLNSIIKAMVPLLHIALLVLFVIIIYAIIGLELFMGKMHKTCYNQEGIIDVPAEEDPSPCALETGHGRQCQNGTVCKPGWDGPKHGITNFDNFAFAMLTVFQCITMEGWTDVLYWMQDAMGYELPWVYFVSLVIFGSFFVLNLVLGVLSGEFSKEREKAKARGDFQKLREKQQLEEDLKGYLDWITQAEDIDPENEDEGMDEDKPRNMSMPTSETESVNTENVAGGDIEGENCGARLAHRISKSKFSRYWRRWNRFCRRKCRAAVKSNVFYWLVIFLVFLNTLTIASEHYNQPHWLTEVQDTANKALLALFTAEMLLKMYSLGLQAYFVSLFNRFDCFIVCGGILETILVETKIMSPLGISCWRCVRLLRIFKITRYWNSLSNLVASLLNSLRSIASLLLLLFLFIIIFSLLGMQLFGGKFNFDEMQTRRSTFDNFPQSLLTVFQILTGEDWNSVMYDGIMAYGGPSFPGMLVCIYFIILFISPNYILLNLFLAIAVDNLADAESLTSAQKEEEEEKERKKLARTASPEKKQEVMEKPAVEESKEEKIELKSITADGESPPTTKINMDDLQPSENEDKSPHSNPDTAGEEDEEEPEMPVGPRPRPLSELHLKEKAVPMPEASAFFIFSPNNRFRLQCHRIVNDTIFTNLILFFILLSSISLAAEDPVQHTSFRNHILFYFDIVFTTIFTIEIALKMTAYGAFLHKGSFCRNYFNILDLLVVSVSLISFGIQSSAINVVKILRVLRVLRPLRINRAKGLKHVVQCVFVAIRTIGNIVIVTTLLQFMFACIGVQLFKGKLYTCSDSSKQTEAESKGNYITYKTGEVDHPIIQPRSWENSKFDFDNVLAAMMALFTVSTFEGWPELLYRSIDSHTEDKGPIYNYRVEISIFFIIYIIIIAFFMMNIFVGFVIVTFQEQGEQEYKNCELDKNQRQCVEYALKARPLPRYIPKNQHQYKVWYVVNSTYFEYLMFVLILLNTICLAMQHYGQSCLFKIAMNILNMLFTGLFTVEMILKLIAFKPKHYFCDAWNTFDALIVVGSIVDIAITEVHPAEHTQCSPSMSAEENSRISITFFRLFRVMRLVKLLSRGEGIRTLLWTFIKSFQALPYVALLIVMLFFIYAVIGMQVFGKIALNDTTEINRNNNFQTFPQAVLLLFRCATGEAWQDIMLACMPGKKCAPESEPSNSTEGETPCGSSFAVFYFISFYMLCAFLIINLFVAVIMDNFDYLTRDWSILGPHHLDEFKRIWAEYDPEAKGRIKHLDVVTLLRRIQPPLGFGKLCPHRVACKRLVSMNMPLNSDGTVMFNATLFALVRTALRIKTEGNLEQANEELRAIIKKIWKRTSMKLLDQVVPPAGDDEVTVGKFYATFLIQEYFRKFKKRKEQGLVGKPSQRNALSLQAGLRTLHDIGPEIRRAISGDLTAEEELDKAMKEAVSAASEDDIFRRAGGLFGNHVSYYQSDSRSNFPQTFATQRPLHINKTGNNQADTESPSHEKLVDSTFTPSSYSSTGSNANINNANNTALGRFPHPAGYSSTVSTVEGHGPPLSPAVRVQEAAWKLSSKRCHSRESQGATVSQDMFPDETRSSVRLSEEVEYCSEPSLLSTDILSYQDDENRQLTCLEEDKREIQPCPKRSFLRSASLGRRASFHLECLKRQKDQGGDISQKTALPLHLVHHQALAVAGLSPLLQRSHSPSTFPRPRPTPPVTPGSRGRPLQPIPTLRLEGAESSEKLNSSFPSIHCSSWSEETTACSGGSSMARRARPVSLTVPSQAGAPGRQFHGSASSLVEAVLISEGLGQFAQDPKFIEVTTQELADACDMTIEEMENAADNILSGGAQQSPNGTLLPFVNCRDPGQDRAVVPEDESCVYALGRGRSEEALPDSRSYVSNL
T1 sequence (P54290 25-944 partner limits assumed): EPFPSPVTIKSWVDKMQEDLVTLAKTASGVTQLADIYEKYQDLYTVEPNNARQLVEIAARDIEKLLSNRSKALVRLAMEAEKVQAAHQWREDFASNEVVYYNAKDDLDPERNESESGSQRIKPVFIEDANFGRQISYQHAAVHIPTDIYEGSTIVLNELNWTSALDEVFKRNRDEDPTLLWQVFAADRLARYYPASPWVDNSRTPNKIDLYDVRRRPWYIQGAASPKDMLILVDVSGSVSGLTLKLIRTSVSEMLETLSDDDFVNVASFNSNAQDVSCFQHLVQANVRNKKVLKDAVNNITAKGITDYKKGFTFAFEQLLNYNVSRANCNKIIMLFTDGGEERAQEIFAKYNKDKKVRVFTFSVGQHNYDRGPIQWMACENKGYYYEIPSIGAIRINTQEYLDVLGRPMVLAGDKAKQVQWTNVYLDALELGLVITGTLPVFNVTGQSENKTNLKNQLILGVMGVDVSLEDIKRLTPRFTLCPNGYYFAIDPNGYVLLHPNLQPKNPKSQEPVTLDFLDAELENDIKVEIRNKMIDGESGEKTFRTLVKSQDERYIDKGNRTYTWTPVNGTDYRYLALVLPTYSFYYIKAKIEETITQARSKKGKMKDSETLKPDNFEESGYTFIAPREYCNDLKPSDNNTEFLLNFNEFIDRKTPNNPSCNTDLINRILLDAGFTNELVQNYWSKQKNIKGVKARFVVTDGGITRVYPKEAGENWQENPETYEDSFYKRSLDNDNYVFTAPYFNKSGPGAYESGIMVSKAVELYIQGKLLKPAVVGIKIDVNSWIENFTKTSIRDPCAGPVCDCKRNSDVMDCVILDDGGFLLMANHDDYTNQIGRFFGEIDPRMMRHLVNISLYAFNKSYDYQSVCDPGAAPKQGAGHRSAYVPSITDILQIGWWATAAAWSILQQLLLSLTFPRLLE
T1 sequence (P54290 945-1091 partner limits assumed): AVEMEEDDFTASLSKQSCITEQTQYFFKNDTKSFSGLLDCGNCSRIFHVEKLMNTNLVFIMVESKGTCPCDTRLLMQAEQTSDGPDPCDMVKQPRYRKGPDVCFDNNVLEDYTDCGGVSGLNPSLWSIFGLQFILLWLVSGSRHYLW
Procedure: Isolated thoracic aortic rings from the male SHR were utilized in this test procedure.
The excised aortic ring was mounted in a tissue bath containing modified Kreb's solution. After depolarization of the tissue with potassium chloride (100 mM), calcium in cumulative concentrations of 1×10^-3 M, 3.2×10^-3 M, and 1×10^-2 M was injected into the bath to produce vascular smooth muscle contraction. The developed tension (in grams) was measured and control dose-response values obtained. After one hour of incubation with a test compound at 1×10^-6 M concentration, the same doses of calcium ions were repeated. The log dose-response curves of the control and after treatment were analyzed by linear regression. The pA2 value was calculated as a measure of calcium antagonism of the test compound. See Van Rossum, J. M., Arch. Int. Pharmacodyn, 143, 299-330, 1963.
Calcium ions play an essential role in induction and maintenance of vascular smooth muscle contractility. In potassium depolarized vascular smooth muscle, calcium antagonists may block the entry of calcium ions into the cell or act by other mechanisms to inhibit the contractions induced by calcium ions. The inhibition of calcium ion--induced contraction of vascular smooth muscle is used to test compounds for vascular calcium antagonism. Cardiovascular diseases such as arrhythmias, angina-pectoris, hypertension, and peripheral vascular disease may be causally related to abnormalities in cellular handling of calcium ions.

[6] = in vivo
[7] = system: anesthetized beagle dogs; test: Antihypertensive effect in anesthetized beagle dogs, i.v.; type: in vivo, beagle dog; conditions: for maximum hypotensive effect: compounds of the invention, verapamil and diltiazem compared
[8] = target: T1, Isolated thoracic aortic rings from the male SHR; conditions: reference drugs, potassium depolarized vascular smooth muscle; cited from earlier work
[9] = SHR, 10 mg/kg/day for three days
[10] = conscious SHR, 50 mg/kg/day for three days
[11] = ratio of the dose required to slow or block atrial-ventricular conduction to the dose required to lower arterial pressure by 20 mmHg
[12] = ratio of the dose to decrease heart rate to the dose to lower arterial pressure

Q: For `C[C@](N)(Cc1ccc(O)c(O)c1)C(=O)O` [Aldomet], which “active in the hypertensive rat assay” value [1] is on record?
A: The value was “active”.

Q: Which “calcium ion antagonist activity” value [2] does the source give for `CCCCCCCCCCCCC(C#N)(CCCN(C)CCc1cccc(OC)c1)c1cccc(OC)c1` (stereo not drawn) [Anipamil, 2-(3-methoxyphenyl)-2[3-[N-[2-(3-methoxyphenyl)ethyl]methylamino]propyl]tetradecanenitrile] here?
A: The value was “calcium ion antagonist activity analogous to verapamil hydrochloride”.

Q: For `NNc1nncc2ccccc12` [Apresoline], which “active in the hypertensive rat assay” value [1] is on record?
A: The value was “active”.

Q: With `C[C@H](CS)C(=O)N1CCC[C@H]1C(=O)O` [Captopril] as the molecule, how does the “active in the hypertensive rat assay” value [1] read?
A: Its value is “active”.

Q: With `Clc1cccc(Cl)c1N=C1NCCN1` [Clonidine] as the molecule, how does the “active in the hypertensive rat assay” value [1] read?
A: The value was “active”.

Q: With `COc1ccc(C(C#N)(CCCN(C)C2CCc3ccccc3C2)C(C)C)cc1OC.O=C(O)CC(O)(CC(=O)O)C(=O)O` (stereo not drawn) [Example 8, 3,4-dimethoxy-α-(1-methylethyl)-α-[3-[N-methyl-N-(1,2,3,4-tetrahydro-2-naphthalenyl)amino]propyl]phenylacetonitrile, citrate (1:1)] as the molecule, how does the “duration of antihypertensive effect” value [3, 9] read?
A: Its value is “approximately 12 hours”.

Q: And the “duration of antihypertensive effect” value [3, 10]?
A: The value was > 24 h.

Q: And the “SHR -mmHg intravenous (mg/kg)” value ([3]; 0.1 mg/kg)?
A: Its value is -30 mmHg.

Q: And the “therapeutic ratio for atrial-ventricular block and bradycardia” value [4]?
A: The value was “more favorable therapeutic ratio for atrial-ventricular block and bradycardia than verapamil or diltiazem”.

Q: And the Kb [5]?
A: The Kb was 0.0501 µM.

Q: What about the selectivity ratio [6, 11] of the same molecule?
A: Its selectivity ratio is 4.

Q: And the selectivity ratio [6, 12]?
A: The selectivity ratio was 3.1.

Q: What about the “slope of the dose-blood pressure response curve” value ([7]; compared to verapamil and diltiazem) of the same molecule?
A: The value was “not as steep”.

Q: With `COc1ccc(C(C#N)(CCCN(C)C2CCc3cc(OC)c(OC)cc3C2)C(C)C)cc1OC.O=C(O)CC(O)(CC(=O)O)C(=O)O` (stereo not drawn) [Example 9, 3,4-dimethoxy-α-(1-methylethyl)-α-[3-[N-methyl-N-(1,2,3,4-tetrahydro-6,7-dimethoxy-2-naphthalenyl)amino]propyl]phenylacetonitrile, citrate (1:1)] as the molecule, how does the “SHR -mmHg intravenous (mg/kg)” value ([3]; 3.0 mg/kg) read?
A: The value was -30 mmHg.

Q: And the Kb [5]?
A: Its Kb is 0.126 µM.

Q: Which results are given for `COc1ccc2c(c1)CCC(N(C)CCCC(C#N)(c1ccc(OC)c(OC)c1)C(C)C)C2.O=C(O)CC(O)(CC(=O)O)C(=O)O` (stereo not drawn) [Example 10, 3,4-dimethoxy-α-(1-methylethyl)-α-[3-[N-methyl-N-(1,2,3,4-tetrahydro-6-methoxy-2-naphthalenyl)amino]propyl]phenylacetonitrile, citrate (1:1)]?
A: SHR -mmHg intravenous (mg/kg) ([3]; 3.0 mg/kg): -24 mmHg; Kb [5]: 0.0251 µM

Q: Which “SHR -mmHg intravenous (mg/kg)” value ([3]; 1.0 mg/kg) does the source give for `COc1ccc(C(C#N)(CCCN(C)C2CCc3c(cccc3OC)C2)C(C)C)cc1OC.O=C(O)CC(O)(CC(=O)O)C(=O)O` (stereo not drawn) [Example 11, 3,4-dimethoxy-α-(1-methylethyl)-α-[3-[N-methyl-N-(1,2,3,4-tetrahydro-5-methoxy-2-naphthalenyl)amino]propyl]phenylacetonitrile, citrate (1:1)] here?
A: Its value is -29 mmHg.

Q: What about the Kb [5] of the same molecule?
A: Its Kb is 0.0501 µM.

Q: For `COc1ccc2c(c1)CC(N(C)CCCC(C#N)(c1ccc(OC)c(OC)c1)C(C)C)CC2.O=C(O)CC(O)(CC(=O)O)C(=O)O` (stereo not drawn) [Example 12, 3,4-dimethoxy-α-(1-methylethyl)-α-[3-[N-methyl-N-(1,2,3,4-tetrahydro-7-methoxy-2-naphthalenyl)amino]propyl]phenylacetonitrile, citrate (1:1)], which “SHR -mmHg intravenous (mg/kg)” value ([3]; 1.0 mg/kg) is on record?
A: Its value is -20 mmHg.

Q: And the Kb [5]?
A: The Kb was 0.0398 µM.

Q: Which results are given for `COc1ccc([C@@H]2Sc3ccccc3N(CCN(C)C)C(=O)[C@@H]2OC(C)=O)cc1` [diltiazem, reference compound]?
A: selectivity ratio [6, 11]: 0.53; selectivity ratio [6, 12]: 0.53; maximum hypotensive effect [7]: approximately the same maximum hypotensive effect; active in vascular calcium antagonism test [8]: active

Q: With `COC(=O)C1=C(C)NC(C)=C(C(=O)OC)C1c1ccccc1[N+](=O)[O-]` [nifedipine] as the molecule, how does the “active in vascular calcium antagonism test” value [8] read?
A: The value was “active”.

Q: What does the source list for `COc1ccc(CCN(C)CCCC(C#N)(c2ccc(OC)c(OC)c2)C(C)C)cc1OC` (stereo not drawn) [verapamil, α[3-[[2-(3,4-dimethoxyphenyl)ethyl]methylamino]propyl]-3,4-dimethoxy-α-(1-methylethyl)hydrochloride, reference compound]?
A: duration of antihypertensive effect [3, 9]: 6 h; duration of antihypertensive effect [3, 10]: 14 h; SHR -mmHg intravenous (mg/kg) ([3]; 0.3 mg/kg): -30 mmHg; maximum hypotensive effect [7]: approximately the same maximum hypotensive effect
